According to publication PMC12138661, “Anti-Trypanosoma cruzi Effect of Fatty Acids from Porcelia macrocarpa Is Related to Interactions of Cell Membranes at Different Microdomains as Assessed Using Langmuir Monolayers” (ACS Omega, 2025):
In brackets after ≈: the same amount, converted by molar mass.

Key:
[1] = test system: amastigote forms of L. (L.) infantum; design: method as in number not given; conditions: previous studies; ref number not given; cited from earlier work
T. cruzi = test system: T. cruzi; design: method as in number not given; conditions: literature data; ref number not given; cited from earlier work
[2] = test system: amastigote forms of T. cruzi; assay: In vitro EC50 against intracellular amastigote forms of T. cruzi in peritoneal macrophages (Giemsa, infection index); type: cell-based; conditions: Trypanosoma cruzi, Peritoneal macrophage; intracellular amastigotes, 48 h; read-out: T. cruzi EC50 AMA
Protocol: After collecting and counting the cells, they were seeded in Nunc brand 16-well plates and incubated for 18 h at 37 °C in an incubator containing 5% CO2. Nonadherent cells were then removed by washing with RPMI-1640 medium. Subsequently, the cells were infected with trypomastigotes at a ratio of 10:1 per well during an incubation period of 4 h. The mixture of compounds, previously diluted in series, was added and incubated for 48 h to determine the EC50 against amastigotes. After the incubation phase, the glass slides were fixed using MeOH for 5 min and then stained with Giemsa for 7 min. This procedure allowed for observation under a light microscope. The infection index was obtained in 200 macrophages/slide according to the formula: infected macrophages × number of amastigotes/total number of macrophages. Benznidazole was used as a standard drug. ,

[3] = Cytotoxicity against mammalian cells (MTT); type: cell-based; conditions: mouse, NCTC clone 929 fibroblasts, NCTC clone 929 murine fibroblasts
Protocol: The cytotoxicity of the mixture of 1–10 was examined in cells of the NCTC lineage (clone 929) at a density of 6 × 10^4 cells per well. The cells were cultivated in 96-well plates containing different concentrations of the mixture, serially diluted using RPMI 1640 medium supplemented with 10% fetal bovine serum (FBS). Incubation took place over 48 h, in an incubator maintained at 37 °C with 5% CO2. The cell viability of NCTC cells (clone 929) was subsequently evaluated using the MTT colorimetric assay.

[4] = test system: trypomastigote forms of T. cruzi (strain Y); assay: In vitro EC50 against trypomastigote forms of T. cruzi (resazurin viability); type: cell-based; conditions: Trypanosoma cruzi; trypomastigotes, 24 h; read-out: T. cruzi EC50 TRYPO
Protocol: Trypomastigote forms (strain Y) of T. cruzi were obtained from Swiss mice (Mus musculus) previously infected intraperitoneally. The trypomastigote forms were used to infect LLC-MK2 cell cultures consisting of Macaca mulatta kidney epithelial cells (ATCC CCL 7) grown in RPMI-1640 medium containing 2% fetal bovine serum (FBS). The infected cell cultures were maintained in an incubator at 37 °C with 5% CO2, as previously described. , To evaluate the 50% effective concentration (EC50) against the trypomastigote forms of T. cruzi, mixture 1–10 was serially solubilized in the RPMI-1640 culture medium in 96-well plates. Subsequently, the trypomastigote forms of T. cruzi were added, at a concentration of 1 × 10^6 trypomastigotes per well. After an incubation period of 24 h at 37 °C with 5% CO2, to determine the viability of trypomastigotes, 20 μL of 10% Alamar Blue (resazurin) was added, followed by a new incubation of the plates for 20 h under the same conditions. At the end of the tests, the plates were read by absorption using a microplate spectrophotometer (Filter Max F5 Multi-Mode Microplate Reader) at 570 nm, as previously described. Benznidazole was used as a positive control, while cells not subjected to treatment were used as a negative control.

T. cruzi epimastigotes = test system: T. cruzi epimastigotes; design: method as in number not given; conditions: literature data; ref number not given; cited from earlier work
[5] = test system: trypomastigote forms of T. cruzi; design: method as in number not given; conditions: previous studies; ref number not given; cited from earlier work
mammalian cells = test system: mammalian cells; design: method as in number not given; conditions: literature data; ref number not given; cited from earlier work

C=CCCCCCCC#CCCCCCCCCCCCC(=O)O [Compound 2, docos-21-en-13-inoic acid]
in vitro activity against amastigote forms of L. (L.) infantum [1]: in vitro activity

CCCCCCCCCCCCCCCCCC(=O)O [stearic acid]
activity against T. cruzi (T. cruzi): inactivity

O=C(Cn1ccnc1[N+](=O)[O-])NCc1ccccc1 [benznidazole]
EC50 [2]: 0.9 ± 0.2 µg/mL (≈ 3.46 µM) | CC50 at 48 h [3]: > 200 µg/mL | EC50 [4]: 3.9 ± 1.2 µg/mL (≈ 15 µM)

CCCCCCCCC#CCCCCCCCC(=O)O [9-octadecinoic acid]
inhibition of growth of T. cruzi epimastigotes (T. cruzi epimastigotes): inhibitory capacity | activity against trypomastigote forms of T. cruzi [5]: effective results

CCCC#CC#CCCCCCCCCCCC(=O)O [macrocarpathic acid, 12,14-octadecadiinoic acid]
cytotoxic effect on mammalian cells (mammalian cells): cytotoxic effect
